Literature values, collected in patent US20130034605A1, “EXTENDED RELEASE PHARMACEUTICAL COMPOSITIONS CONTAINING PALIPERIDONE” (MICRO LABS LIMITED, priority 2011, published 2013).
Read-outs that look alike come from different tables or passages of the source.

Solubility (in 0.1 N hydrochloric acid): soluble
Solubility (in methanol): soluble
Solubility (in methylene chloride): freely soluble
Solubility (in water): practically insoluble
SMILES: Cc1nc2n(c(=O)c1CCN1CCC(c3noc4cc(F)ccc34)CC1)CCCC2O (racemic) [Paliperidone, (RS)-3-[2-[4-(6-fluorobenzo[d]isoxazol-3-yl)-1-piperidyl]ethyl]-7-hydroxy-4-methyl-1,5-diazabicyclo[4.4.0]deca-3,5-dien-2-one]
